Among the test systems are HS 578T breast; OVCAR-3 ovarian; SF-295 CNS; NCI-H23 lung; SW-620 colon; PC-3 prostate; UACC-62 melanoma; KM12 colon; ACHN renal; SN12C renal.
Assay in all cases: growth of human tumour cells (NCI), 48 h

Several values for one entry are separate records, joined by “and”; a condition that tells them apart may be missing. Identical values can stand only once.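 Compound exposure: 48 hours, 5 concentrations, 96-well plates. GI50 is the concentration that inhibits growth by half. The concentration for full growth arrest is given as TGI.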

Regarding `C=C1COC(O)(C2OCOC(C3CC(=O)NC(=O)C3)C2O)C1C` (stereo not drawn), the GI50 was 4.28 nM in the experiment with HS 578T breast; 2.49 nM with SF-295 CNS; 2.67 nM with NCI-H23 lung; 2.88 nM in the experiment with SW-620 colon; 6.29 nM with PC-3 prostate; 2.75 nM and 13.4 nM with UACC-62 melanoma. The GI50 with KM12 colon is 1.76 nM; in the experiment on ACHN renal, 3.52 nM. For the same compound, the TGI with HS 578T breast was 26.5 nM; in the experiment on OVCAR-3 ovarian it was 46 nM; in the experiment on SF-295 CNS it was 18 nM and 42.3 nM; in the experiment on NCI-H23 lung it was 14.4 nM and 33.8 nM; in the experiment with SW-620 colon it was 42 nM and 142 nM; in the experiment with PC-3 prostate, 50.1 nM. In addition, the TGI in the experiment on UACC-62 melanoma is 24.7 nM and 131 nM; in the experiment on KM12 colon, 21.2 nM; in the experiment with ACHN renal, 198 nM and 35.5 nM; in the experiment on SN12C renal, 12 nM.

The record behind these values is PubChem BioAssay (NCI).
